Laboratory results published in US10391070B2, “Compositions and methods for treating neurological diseases or injury” (MUSC FOUNDATION FOR RESEARCH DEVELOPMENT, priority 2012, dated 2019).

Legend:
[1] = test system: NQO-1; assay: qRT-PCR of antioxidant response gene NQO-1; type: cell-based, mouse; conditions: HT22, 10 mM glutamate 16 hrs, relative to glutamate only
Procedure: HT22 cells were seeded onto cell culture treated 6-well plates at 3.0×10^5 cells per well in 2 mL of medium and maintained at 37° C. in 5% CO2 overnight prior to the initiation of experimental treatments. Cells were subsequently treated with 1 mL of medium containing glutamate (monosodium glutamate, Sigma-Aldritch, 1 M stock concentration in media, to achieve a final concentration of 10 mM) plus inhibitors (stock in DMSO) and maintained at 37° C. in 5% CO2. After 16 hrs, the media was collected and the cells harvested by trypsanization. After centrifugation, pelleted cells were washed with cold Hanks' Balanced Salt Solution (HBSS Ca^2+/Mg^2+ Free; Invitrogen; KCl 5.33 mM, KH2PO4 0.441 mM, NaHCO3 4.17 mM, NaCl 137.93 mM, Na2HPO4 0.338 mM, D-Glucose 5.56 mM), qRT-PCR was used to detect HO-1, NQO-1, and PGAM5 mRNAs in the HT22 cells. […] Therefore β2-microglobulin was used as a reference gene (Barrionuevo and Burggren, 1999). HT22 cells were cultured as described for 16 hrs. Total RNAs were extracted using the RNEasy kit (Qiagen), and transcripts of interest were amplified by PCR using the 1-step Syber Green qRT-PCR kit (Quanta) and the following specific primers (Harvard PrimerBank; Integrated DNA Technologies): HO-1, 5′-[…]-3′ (SEQ ID NO:1) and 5′-[…]-3′ (SEQ ID NO:2); PGAM5, 5′-[…]-3′ (SEQ ID NO:3) and 5′-[…]-3′ (SEQ ID NO:4); NQO-1, 5′-[…]-3′ (SEQ ID NO:5) and 5′-[…]-3′ (SEQ ID NO:6); and β2-microglobulin, 5′-[…]-3′ (SEQ ID NO:7) and 5′-[…]-3′ (SEQ ID NO:8). Linearity of the primers was verified before use, and fold changes were calculated as previously described using the Livak method (Barrionuevo and Burggren, 1999).

[2] = test system: maximal electroshock-induced seizures; assay: Maximal electroshock test; type: in vivo, mouse; conditions: mice; for animals protected/animals tested, 0.25 hr / animals protected/animals tested, 0.5 hr / animals protected/animals tested, 1.0 hr / animals protected/animals tested, 2.0 hr / animals protected/animals tested, 4.0 hr: 100 mg/kg i.p., maximal electroshock
Procedure: Mouse studies were performed by NIH Anticonvulsant Screening Program at the National Institute of Neurological Disorders and Stroke (Stables and Kupferberg, 1997) according to the established NIH experimental procedures outlined below. Compounds were delivered into mice by i.p. injection at a dose of 100 mg/kg in sterile 5% DMSO, 95% Neobee (Josey et al., 2013). One of four methods for seizure induction was subsequently administered to mice at 0.25, 0.5, 1, 2 and 4 h after treatment with compound. (1) Subcutaneous PTZ seizure threshold test. PTZ was administered at a concentration of 85 mg/kg, into the loose fold of skin in the midline of the neck. […] (2) Maximal electroshock test. 60 Hz of 50 mA alternating current was delivered for 0.2 s by corneal electrodes. Mice were considered protected from seizures when the hindlimb tonic extensor was absent (White et al., 1995). (3) Minimal clonic seizure (6 Hz) test. 6 Hz of 32 mA or 44 mA alternating current was delivered for 3 s by corneal electrodes to elicit a psychomotor seizure. Mice were considered protected from seizures when the automatistic behaviors were absent (Barton et al., 2001). (4) Corneal kindled mouse model. Mice were kindled electrically with a 3 s stimulation, 8 mA, 60 Hz, and corneal electrodes to a criterion of 10 consecutive Stage 5 seizures (facial clonus and head nodding progressing to forelimb clonus, and finally rearing and falling accompanied by a generalized clonic seizure as described by Racine, 1972). Animals generally reach Stage 5 after twice daily stimulation for 8 days. With continued stimulation once a day, animals usually progressed to a reproducible Stage 5 after 10-14 additional days. At least 72 hours after the mice were kindled, the test substance was administered i.p. and each animal was given the electrical stimulus indicated above. […] Treated animals not displaying a Stage 4 or 5 seizure were considered protected.
The data for each treatment is represented as the number of animals protected/number of animals tested.
The maximal electroshock-induced seizures (MES) test is a model for generalized tonic-clonic seizures and provides an indication of a compound's ability to prevent seizure spread when all neuronal circuits in the brain are maximally active. These seizures are highly reproducible and are electrophysiologically consistent with human seizures. An animal is considered “protected” from MES-induced seizures based on abolition of the hindlimb tonic extensor component of the seizure.

[3] = test system: Drp1; assay: Western blot, phosphorylation of Drp1 (Ser637); type: cell-based, mouse; conditions: HT22, 10 mM glutamate 16 hrs
Procedure: HT-22 cells were cultured and treated as described above for the qRT-PCR experiments. After 16 hrs, the media was collected and the cells harvested by trypsanization. After centrifugation, pelleted cells were washed with cold HBSS Ca^2+/Mg^2+ Free, followed by lysis with a low salt lysis buffer (50 mM Tris-HCl, pH 7.4, 150 mM NaCl, 10% glycerol, 0.5 Triton X-100, 1× protease and phosphatase inhibitor cocktail) for 30 min, followed by a 15-s sonication pulse at 30 W. For Western blot analysis, the cell lysates were denatured with LDS loading buffer (Invitrogen) and run on Nupage 4-12% Tris-glysine gradient gels (Invitrogen) after centrifugation. Phosphorylated Drp1 (Ser637) (Cell Signaling) and total Drp1 (C5) (Santa Cruz), PGAM5 (K16) (Santa Cruz Biotechnology), Actin (Sigma-Aldritch) and alpha-Tubulin (Santa Cruz Biotechnology) were assessed with primary antibody, followed by rabbit, mouse, or goat IgG-HRP secondary antibody. The blot was developed using Pierce Thermo Dura-ECL reagent (Thermo-Fisher) and visualized using an ImageQuant LAS 4000 (GE). Digital images of membranes were quantified by computer-assisted densitometry using Image J 1.42q (National Institutes of Health, MD).

O=C1C=C(NCc2ccccc2)C(=O)c2ccccc21 [Compound 2j, 2-(benzylamino)naphthalene-1,4-dione]
NQO-1 gene expression [1]: did not affect NQO-1 expression
anticonvulsant activity in maximal electroshock test [2]: limited anticonvulsant activity
animals protected/animals tested, 0.25 hr [2]: 0/4
animals protected/animals tested, 0.5 hr [2]: 0/4
animals protected/animals tested, 1.0 hr [2]: 0/4
animals protected/animals tested, 2.0 hr [2]: 2/4
animals protected/animals tested, 4.0 hr [2]: 0/4
phosphorylation of Drp1 at Ser 637 ([3]; 250 and 125 nM): the phosphorylation state is maintained

C#CCNC1=CC(=O)c2ccccc2C1=O [Compound 2h, 2-(prop-2-yn-1-ylamino)naphthalene-1,4-dione]
anticonvulsant activity in maximal electroshock test [2]: limited anticonvulsant activity
animals protected/animals tested, 0.25 hr [2]: 0/4
animals protected/animals tested, 0.5 hr [2]: 0/4
animals protected/animals tested, 1.0 hr [2]: 0/4
animals protected/animals tested, 2.0 hr [2]: 1/4
animals protected/animals tested, 4.0 hr [2]: 1/4

menaquinones [VK2, reference compound]
NQO-1 gene expression [1]: did not affect NQO-1 expression
phosphorylation of Drp1 at Ser 637 ([3]; 250 nM): less effective
phosphorylation of Drp1 at Ser 637 ([3]; 500 nM): the phosphorylation state is maintained

O=C1C=C(NCc2cccc(Cl)c2)C(=O)c2ccccc21 [Compound 2q, 2-((3-chlorobenzyl)amino)naphthalene-1,4-dione]
NQO-1 gene expression [1]: did not affect NQO-1 expression
animals protected/animals tested, 0.25 hr [2]: 0/4
animals protected/animals tested, 0.5 hr [2]: 0/4
animals protected/animals tested, 1.0 hr [2]: 0/4
animals protected/animals tested, 2.0 hr [2]: 0/4
animals protected/animals tested, 4.0 hr [2]: 0/4
phosphorylation of Drp1 at Ser 637 ([3]; 250 and 125 nM): the phosphorylation state is maintained
